Data: paper PMC9995496, “A screen for MeCP2-TBL1 interaction inhibitors using a luminescence-based assay” (Scientific Reports, 2023)
Structures can show the parent of a compound that is named as a salt. Where two headings read alike, the source gives them in different places.

System: PRKACA-PRKAR2A interaction (SmBiT-PRKACA / LgBiT-PRKAR2A), protein kinase A
Parameters: NanoLuc complementation counter-screen in cell extract, PRKACA with PRKAR2A, loss of luminescence, detects NanoLuc interference
Settings: counter-screen for NanoLuc interference, 0.5 h, 20 µM, inhibitor

| SMILES | Inh (PKA) [%] | Inh (PKA) (Inh (PKA)) [%] |
| --- | --- | --- |
| COc1ccc2cc(-c3nc(-c4ccc([S+](C)[O-])cc4)[nH]c3-c3ccncc3)ccc2c1 (stereo not drawn) [UM0141919:01, Tie2 kinase inhibitor] | 68.85 |  |
| CN1C/C(=C/c2ccc(B(O)O)cc2)C(=O)/C(=C\c2ccc(B(O)O)cc2)C1 [UM0141922:01, AM 114] | 1.277 |  |
| NCCCC[C@@H]1NC(=O)[C@@H](Cc2ccccc2)NC(=O)[C@H](CC(=O)O)NC(=O)CNC(=O)[C@H](CCCN=C(N)N)NC1=O [UM0141923:01, Cyclo (-RGDfK)] | -1.971 |  |
| COC(=O)C[C@H](NC(=O)[C@@H](NC(=O)c1ccc2ccccc2n1)C(C)C)C(=O)COc1c(F)cccc1F [UM0141924:01, Q-VD(OMe)-OPh] | 13.3 |  |
| CO[C@H]1C[C@@H]2CC[C@@H](C)[C@@](O)(O2)C(=O)C(=O)N2CCCC[C@H]2C(=O)O[C@H]([C@H](C)C[C@@H]2CC[C@@H](O)[C@H](OC)C2)CC(=O)[C@H](C)/C=C(\C)[C@@H](O)[C@@H](OC)C(=O)[C@H](C)C[C@H](C)/C=C/C=C/C=C/1C [UM0141925:01, Rapamycin (Sirolimus)] | 2.249 |  |
| CCOC(=O)C1=C(N)Oc2ccc(Br)cc2[C@H]1[C@H](C#N)C(=O)OCC [UM0141926:01, HA14-1] | 18.52 |  |
| CO[C@H]1C[C@@H]2CC[C@@H](C)[C@@](O)(O2)C(=O)C(=O)N2CCCC[C@H]2C(=O)O[C@H]([C@H](C)C[C@@H]2CC[C@@H](OCCO)[C@H](OC)C2)CC(=O)[C@H](C)/C=C(\C)[C@@H](O)[C@@H](OC)C(=O)[C@H](C)C[C@H](C)/C=C/C=C/C=C/1C [UM0141927:01, Everolimus (RAD001)] | 0.7572 |  |
| CC(NC(=O)[C@H](Cc1ccccc1)NC(=O)OCc1ccccc1)C(=O)CF (stereo partly drawn) [UM0141928:01, Z-FA-FMK] | 4.07 |  |
| Nc1ccccc1NC(=O)c1ccc(CNC(=O)OCc2cccnc2)cc1 [UM0141929:01, Entinostat (MS-275,SNDX-275)] | 3.043 |  |
| CC(C)CCCCC(=O)N[C@@H](CO)C(=O)N[C@@H](CC(C)C)C(=O)[C@@]1(CO)CO1 [UM0141930:01, Dihydroeponemycin] | 3.421 |  |
| C/C=C1\NC(=O)[C@H]2CSSCC/C=C/[C@H](CC(=O)N[C@H](C(C)C)C(=O)N2)OC(=O)[C@H](C(C)C)NC1=O [UM0141931:01, Romidepsin (FK228, depsipeptide)] | 2.202 |  |
| CN(C(=O)c1cc2ccccc2cc1C(=O)C(c1cccc2ccccc12)P(=O)(O)O)C1CCN(C(=O)c2ccccc2)CC1 (stereo not drawn) [UM0141932:01, Cathepsin G Inhibitor I] | 16.06 |  |
| C=CCc1cccc(/C=N/NC(=O)CN2CCN(Cc3ccccc3)CC2)c1O [UM0141933:01, PAC-1] | 9.934 |  |
| CC(C)C[C@H](NC(=O)[C@H](CC(C)C)NC(=O)[C@H](CC(C)C)NC(=O)OCc1ccccc1)B(O)O [UM0141934:01, MG-262] | 2.364 |  |
| CN([C@@H](Cc1ccc(OS(=O)(=O)c2cccc3cnccc23)cc1)C(=O)N1CCN(c2ccccc2)CC1)S(=O)(=O)c1cccc2cnccc12 [UM0141935:01, KN-62] | 9.099 |  |
| C[C@@]1(F)[C@H](O)[C@@H](CO)O[C@H]1n1ccc(=O)[nH]c1=O [UM0141938:01, PSI-6206] | 1.416 |  |
| CC(C)[C@H](O)C(=O)N[C@@H](C)C(=O)N[C@@H]1C(=O)N(C)CCc2ccccc21 [UM0141939:01, Semagacestat (LY450139)] | -0.02723 |  |
| C[C@@H]1O[C@@H](CC(=O)O)CC2=C1C(=O)c1c(O)cccc1C2=O [UM0141940:01, Nanaomycin A] | 18.84 |  |
| COc1cc2ncnc(Nc3cccc(Br)c3)c2cc1OC [UM0141943:01, PD153035 hydrochloride] | 18.98 |  |
| CC(C)c1nc(CN(C)C(=O)N[C@H](C(=O)N[C@@H](Cc2ccccc2)C[C@H](O)[C@H](Cc2ccccc2)NC(=O)OCc2cncs2)C(C)C)cs1 [UM0141947:01, Ritonavir] | 6.592 |  |
| Cc1cccc(C)c1OCC(=O)N[C@@H](Cc1ccccc1)[C@@H](O)C[C@H](Cc1ccccc1)NC(=O)[C@H](C(C)C)N1CCCNC1=O [UM0141948:01, Lopinavir] | 17.52 |  |
| COC(=O)N[C@H](C(=O)N[C@@H](Cc1ccccc1)[C@@H](O)CN(Cc1ccc(-c2ccccn2)cc1)NC(=O)[C@@H](NC(=O)OC)C(C)(C)C)C(C)(C)C [UM0141949:01, Atazanavir] |  | 2.849 |
| CC(C)CN(C[C@@H](O)[C@H](Cc1ccccc1)NC(=O)O[C@H]1CO[C@H]2OCC[C@H]21)S(=O)(=O)c1ccc(N)cc1 [UM0141950:01, Darunavir] | 4.833 |  |
| COc1cc2c(cc1OC)CN(CCc1ccc(NC(=O)c3cc(OC)c(OC)cc3NC(=O)c3cnc4ccccc4c3)cc1)CC2 [UM0141951:01, Tariquidar] | 12.46 |  |
| N#CSc1cc(SC#N)c(N)nc1N [UM0141952:01, PR-619] | 19.82 |  |
| COc1ccc(CCC(=O)Nc2nc3ccc(Cl)cc3s2)cc1OC [UM0141953:01, KY 02111] | 9.326 |  |
| COc1ccc(-c2ccc3c(N4CCOC[C@@H]4C)nc(N4CCOC[C@@H]4C)nc3n2)cc1CO [UM0141954:01, AZD8055] | 6.662 |  |
| CC(C)(C)n1nc(-c2ccc(Cl)cc2)c2c(N)ncnc21 [UM0141956:01, PP 2 (AG 1879)] | 33.15 |  |
| O=C(NCCCNc1nc(Nc2cccc(NC(=O)N3CCCC3)c2)ncc1I)c1cccs1 [UM0141957:01, BX795] | 37.99 |  |
| O=C(Nc1ccc(CN2CCOCC2)cc1)c1ccc(-c2cccc(Cl)c2)o1 [UM0141958:01, CID 2011756] | 20.99 |  |
